{"source": "patent US20050176740A1", "about": "“Cancer treatment method comprising administering an erb-family inhibitor and a raf and/or ras inhibitor” (priority 2002, published 2005)", "format_in_all_cases": "cell-based, human", "key": {"[1]": {"system": "pTyr in parental HB4a cells", "test": "Western blot of tyrosine phosphorylation (pTyr) after GW2016 treatment, FIG. 2", "conditions": "1 μM or 5 μM GW2016/72 hours", "experimental": "(§1) The HB4a cell line was derived from human mammary luminal tissue. HB4a-erbB2 and HB4a-ras cell lines were generated by overexpression of erbB2 and mutant Ha-(Val-12)-ras in HB4a cell line. The S1 cell line was established by sub-cloning ErbB-2 transfected HB4a (see Harris R A, Eichholtz T J, Hiles J D, Page M J and O'Hare M J. (1999). Int J. Cancer. 80, 477, 484.)\n(§2) HB4a cells grew in RPMI 1640 supplemented with L-glutamine, 10% FBS (Hyclone), 10 ug/ml hydrocortisone, and 5 ug/ml insulin. S1 and ras transfected cells were cultured in RPMI 1640 supplemented with L-glutamine, 10% FBS and 50 μg/ml hygromycin. Cell cultures were maintained in a humidified atmosphere of 5% CO2 at 37° C.\n(§3) (a) The dual EGFR/erbB-2 inhibitor N-{3-Chloro-4-[(3-fluorobenzyl)oxy]phenyl}-6-[5-({[2-(methanesulphonyl)ethyl]amino}methyl)-2-furyl]-4-quinazolinamine and the cRaf-1 inhbitor of 3-(3,5-Dibromo-4-hydroxy-benzylidene)-5-iodo-1,3-dihydro-indol-2-one were dissolved in 100% DMSO to form solutions of 1, 5, 10, and 20 μM concentrations and tested on cells in growth medium for 3 continuous days. […]\n(§4) Whole cell extracts were prepared by scraping cells off petri dishes, washing the cell pellet twice in PBS, and then resuspending the pellet in two-packed-cell volumes of RIPA buffer (150 mM NaCl, 50 mM Tris-HCl, pH 7.5, 0.25% deoxycholate, 1% NP-40, 5 mM sodium orthovanadate, 2 mM sodium fluoride and a protease inhibitor cocktail). Protein concentrations were determined using a modification of the Bradford method (Bio-Rad Laboratory). Steady state levels of total erbB-2, EGFR, Ras, Erk1/2, pErk1/2 and pTyr protein were assessed by Western blot which was carried out as follows: equal amounts of proteins was resolved by 7.5% SDS polyacrylamide gel electrophoresis under reducing conditions. […] Efficiency and equal loading of proteins was evaluated by Ponceau S staining. […]\n(§5) HB4a cells growing in RPMI 1640 supplemented with L-glutamine, 10% FBS (Hyclone), 10 ug/ml hydrocortisone, and 5 μg/ml insulin. […] Protein concentrations were determined using a modification of the Bradford method (Bio-Rad Laboratory)."}, "[2]": {"system": "pTyr in Ha-(Val12)-ras transfected HB4a cells", "test": "Western blot of tyrosine phosphorylation (pTyr) after GW2016 treatment, FIG. 2", "conditions": "1 μM or 5 μM GW2016/72 hours", "experimental": "as §1, §2, §3, §4, §5"}, "[3]": {"system": "pTyr in erbB-2 transfected HB4a cells", "test": "Western blot of tyrosine phosphorylation (pTyr) after GW2016 treatment, FIG. 2", "conditions": "1 μM or 5 μM GW2016/72 hours", "experimental": "as §1, §2, §3, §4, §5"}, "[4]": {"system": "pErk1/Erk2 in parental HB4a cells", "test": "Western blot of MAPK activation (pErk1/Erk2) after GW2016 treatment, FIG. 3", "conditions": "1 μM or 5 μM GW2016/72 hours", "experimental": "as §1, §2, §3, §4, §5"}, "[5]": {"system": "pErk1/Erk2 in Ha-(Val12)-ras transfected HB4a cells", "test": "Western blot of MAPK activation (pErk1/Erk2) after GW2016 treatment, FIG. 3", "conditions": "Ha-(Val 12)-ras transfected HB4a cells; 1 μM or 5 μM GW2016/72 hours", "experimental": "as §1, §2, §3, §4, §5"}, "[6]": {"system": "pErk1/Erk2 in erbB-2 transfected HB4a cells", "test": "Western blot of MAPK activation (pErk1/Erk2) after GW2016 treatment, FIG. 3", "conditions": "1 μM or 5 μM GW2016/72 hours", "experimental": "as §1, §2, §3, §4, §5"}}}
{"smiles": "CS(=O)(=O)CCNCc1ccc(-c2ccc3ncnc(Nc4ccc(OCc5cccc(F)c5)c(Cl)c4)c3c2)o1", "note": "[GW2016, N-{3-Chloro-4-[(3-fluorobenzyl)oxy]phenyl}-6-[5-({[2-(methanesulphonyl)ethyl]amino}methyl)-2-furyl]-4-quinazolinamine]", "values": [{"measurement": "tyrosine phosphorylation (pTyr), Western blot", "setting": "[1]", "value": "reduction in tyrosine phosphorylation"}, {"measurement": "effect on phosphorylation on tyrosine residues (pTyr), Western blot", "setting": "[2]", "value": "no effect"}, {"measurement": "tyrosine phosphorylation (pTyr), Western blot", "setting": "[3]", "value": "reduction in tyrosine phosphorylation"}, {"measurement": "Erk1/Erk2 phosphorylation, Western blot", "setting": "[4]", "value": "reduction in Erk1/Erk2 phosphorylation"}, {"measurement": "phosphorylation of Erk1/Erk2, Western blot", "setting": "[5]", "value": "no effect"}, {"measurement": "pErk1/Erk2, Western blot", "setting": "[6]", "value": "decrease in pErk1/Erk2"}]}
